Results taken from patent publication US12653811B2 (CLOSED LOOP MEDICINE LTD, priority 2020, dated 2026).

Columns and labels:
[1] = cited from earlier work
[2] = system: patients with primary hypertension and inadequate BP control; assay: Precision dosing trial of amlodipine with home blood pressure and e-diary side effects (Example 1)

## CCOC(=O)C1=C(COCCN)NC(C)=C(C(=O)OC)C1c1ccccc1Cl (stereo not shown) [amlodipine]
[1]; FIG. 1, Williams et al 1988
  dose linearity of pharmacokinetics: linear across a wide range of doses
[1]; elderly
  increase in total exposure: up to 60%
[1]; steady-state, same dose
  variance in average amlodipine blood levels between subjects: up to 30%
[2]; during the trial to date
  toxic related side effects leading to treatment discontinuation: no toxic related side effects leading to treatment discontinuation were observed
[2]; end of study, baseline mean DBP 88 mmHg, 109 patients begun, 39 completed, linear mixed model estimate
  end mean DBP: 81 mmHg
[2]; end of study, baseline mean SBP 146 mmHg, 109 patients begun, 39 completed, linear mixed model estimate
  end mean SBP: 133 mmHg
[2]; single patient, final dose of 10 mg, VAS 0-100 scale (1-25 mild, 26-50 moderate)
  side effects (oedema) by VAS score: mild to moderate
